Earlier results as cited in US6576233B2 (priority 1996, dated 2003).

How the values were obtained:
people = settings: daily supplement, more than 1,300 people
[1] = Ferris et al. 1989

What does the source list for `[Se]` [Selenium, selenium]?
reduction of overall cancer risk (people): ~40%; dosage reported as safe [1]: 600 micrograms per day
